Measured values: ChEMBL document CHEMBL1145418, “Cerebrosides and tocopherol trimers from the seeds of Euryale ferox” (J Nat Prod, 2007)

System: not listed separately
Experiment: (§1) Toxicity against brine shrimp after 24 hr by brine shrimp lethality test
Type: organism-based
Settings: artemia, in vivo

SMILES	LC50 at 24 h
CCCCCCC/C=C/CC/C=C/[C@@H](O)[C@H](CO[C@@H]1O[C@H](CO)[C@@H](O)[C@H](O)[C@H]1O)NC(=O)[C@H](O)CCCCCCCCCCCCCCCCCCCC	170 µM
CCCCCCC/C=C/CC/C=C/[C@@H](O)[C@H](CO[C@@H]1O[C@H](CO)[C@@H](O)[C@H](O)[C@H]1O)NC(=O)[C@H](O)CCCCCCCCCCCCCCCCCCCCCC	200 µM

System: Artemia
Experiment: as §1
Type: organism-based
Settings: in vivo, 24 h

SMILES	Activity
CC1=C(C)[C@@]23Oc4c(C)c(C)c5c(c4C[C@@]2(CC[C@@](C)(CCCC(C)CCCC(C)CCCC(C)C)O3)C2(Cc3c4c(c(C)c(C)c3O2)O[C@](C)(CCCC(C)CCCC(C)CCCC(C)C)CC4)C1=O)CC[C@@](C)(CCCC(C)CCCC(C)CCCC(C)C)O5 (stereo partly specified) [FEROTOCOTRIMER C]	Non-toxic
CC1=C(C)[C@]23Oc4c(C)c(C)c5c(c4C[C@]2(CC[C@@](C)(CCCC(C)CCCC(C)CCCC(C)C)O3)C2(Cc3c4c(c(C)c(C)c3O2)O[C@](C)(CCCC(C)CCCC(C)CCCC(C)C)CC4)C1=O)CC[C@@](C)(CCCC(C)CCCC(C)CCCC(C)C)O5 (stereo partly specified) [FEROTOCOTRIMER D]	Non-toxic
CC1=C(C)[C@]23Oc4c(C)c(C)c5c(c4C[C@]2(CC[C@@](C)(CCCC(C)CCCC(C)CCCC(C)C)O3)C2(CCc3c4c(c(C)c(C)c3O2)O[C@](C)(CCCC(C)CCCC(C)CCCC(C)C)CC4)C1=O)CC[C@@](C)(CCCC(C)CCCC(C)CCCC(C)C)O5 (stereo partly specified) [TOCOPHEROL TRIMER IVA]	Non-toxic
CC1=C(C)[C@@]23Oc4c(C)c(C)c5c(c4C[C@@]2(CC[C@@](C)(CCCC(C)CCCC(C)CCCC(C)C)O3)C2(CCc3c4c(c(C)c(C)c3O2)O[C@](C)(CCCC(C)CCCC(C)CCCC(C)C)CC4)C1=O)CC[C@@](C)(CCCC(C)CCCC(C)CCCC(C)C)O5 (stereo partly specified) [TOCOPHEROL TRIMER IVB]	Non-toxic
